# Structures can show the parent of a compound that is named as a salt. Where two headings read alike, the source gives them in different places.
# Experiments:
# [1] = Dynamic solubility evaluation in water and biological menstruums; type: physicochemical; settings: for pH: solubility sample
# Description: The dynamic solubility of the crystal form B of the sulfate, the crystal form A of the maleate and the crystal form C of the hydrochloride in water and three biological menstruums was evaluated.
# [2] = Hygroscopicity evaluation by DVS; type: physicochemical; settings: 25° C./80% RH, listed as crystal form B of the sulfate
# Description: The hygroscopicity of the crystal form B of the sulfate, the crystal form A of the maleate and the crystal form C of the hydrochloride was evaluated by DVS. The water adsorption (second adsorption curve) of the three salt forms at 25° C./80% RH is 7.62%, 1.35% and 4.77% respectively.
# [3] = Solid state stability (HPLC purity after storage); type: physicochemical
# Description: The chemical stability of the samples was determined by HPLC after placing the crystal form B of the sulfate, the crystal form A of the maleate and the crystal form C of the hydrochloride at 25° C./60% RH and 40° C./75% RH for 1 week, respectively. For the maleate, additional stability data for one month and two months storage at 25° C./60% RH and 40° C./75% RH (open) were collected, and using the crystal form A of maleate as the starting sample, stability data for 24 hours storage at 60° C. (closed) were collected.
# in vitro = settings: human, Caco-2, pH 7.4
# Description: The transport buffer solution was HBSS (Hanks' balanced salt solution) and 10 mM HEPES [N-(2-hydroxyethyl)piperazine-N-(2-ethanesulfonic acid) solution], with a pH value of 7.40±0.05; Caco-2 cells were purchased from ATCC.
# Caco-2 cells were seeded at 1×10^5 cells/cm^2 in 96-well BD insert plates of polyethylene terephthalate (PET), and the medium was refreshed every 4-5 days until day 21-28 to form a confluent monolayer. Test compounds were tested in a two-way format at 2 μM in duplicate. Digoxin was added at 10 μM in the two-way format, and nadolol and metoprolol were added at 2 μM in the two-way format. Final concentration of DMSO was adjusted to less than 1%. The plates were incubated in a CO2 incubator at 37±1° C. for 2 h with 5% CO2 at saturated humidity without shaking. All samples were mixed with acetonitrile containing an internal standard, and centrifuged at 4000 rpm for 10 min. 100 microliters of supernatant was diluted with 100 microliters of distilled water for LC/MS/MS analysis. By LC/MS/MS analysis, the concentrations of the test compounds and the reference compound in the initial test article solution, the test article solution and the test compound solution using the peak area ratio of the analyte to the internal standard. After the transport test, the integrity of the Caco-2 cell monolayer was determined by fluorescein yellow exclusion reaction, and the apparent permeability coefficient and efflux ratio were calculated.
# [4] = FaSSIF, 1 hour, 37° C., feeding 10 mg/mL
# [5] = FaSSIF, 2 hours, 37° C., feeding 10 mg/mL
# [6] = FaSSIF, 4 hours, 37° C., feeding 10 mg/mL
# [7] = FaSSIF, 24 hours, 37° C., feeding 10 mg/mL
# [8] = FeSSIF, 1 hour, 37° C., feeding 10 mg/mL
# [9] = FeSSIF, 2 hours, 37° C., feeding 10 mg/mL
# [10] = FeSSIF, 4 hours, 37° C., feeding 10 mg/mL
# [11] = FeSSIF, 24 hours, 37° C., feeding 10 mg/mL
# [12] = H2O, 1 hour, 37° C., feeding 10 mg/mL
# [13] = H2O, 2 hours, 37° C., feeding 10 mg/mL
# [14] = H2O, 4 hours, 37° C., feeding 10 mg/mL
# [15] = H2O, 24 hours, 37° C., feeding 10 mg/mL
# [16] = SGF, 1 hour, 37° C., feeding 10 mg/mL
# [17] = SGF, 2 hours, 37° C., feeding 10 mg/mL
# [18] = SGF, 4 hours, 37° C., feeding 10 mg/mL
# [19] = SGF, 24 hours, 37° C., feeding 10 mg/mL
smiles,measurement,setting,value
CN(c1ncnc2[nH]ccc12)[C@@H]1CCc2cc(C#N)nn2C1 [Crystal form B of sulfate],S: solubility,[1]; [4],3400 µg/mL
same,S: solubility,[1]; [5],3400 µg/mL
same,S: solubility,[1]; [6],3300 µg/mL
same,S: solubility,[1]; [7],2600 µg/mL
same,S: solubility,[1]; [8],70 µg/mL
same,S: solubility,[1]; [9],70 µg/mL
same,S: solubility,[1]; [10],60 µg/mL
same,S: solubility,[1]; [11],50 µg/mL
same,S: solubility,[1]; [12],3700 µg/mL
same,S: solubility,[1]; [13],3800 µg/mL
same,S: solubility,[1]; [14],3700 µg/mL
same,S: solubility,[1]; [15],4000 µg/mL
same,S: solubility,[1]; [16],5300 µg/mL
same,S: solubility,[1]; [17],5000 µg/mL
same,S: solubility,[1]; [18],4800 µg/mL
same,S: solubility,[1]; [19],5300 µg/mL
same,pH,"[1]; FaSSIF, 1 hour",2.7
same,pH,"[1]; FaSSIF, 2 hours",2.6
same,pH,"[1]; FaSSIF, 4 hours",2.7
same,pH,"[1]; FaSSIF, 24 hours",2.4
same,pH,"[1]; FeSSIF, 1 hour",4.3
same,pH,"[1]; FeSSIF, 2 hours",4.3
same,pH,"[1]; FeSSIF, 4 hours",4.3
same,pH,"[1]; FeSSIF, 24 hours",4.4
same,pH,"[1]; H2O, 1 hour",2.0
same,pH,"[1]; H2O, 2 hours",2.2
same,pH,"[1]; H2O, 4 hours",2.1
same,pH,"[1]; H2O, 24 hours",1.9
same,pH,"[1]; SGF, 1 hour",1.7
same,pH,"[1]; SGF, 2 hours",1.8
same,pH,"[1]; SGF, 4 hours",1.8
same,pH,"[1]; SGF, 24 hours",1.6
same,water adsorption (second adsorption curve),[2],7.62%
same,Purity (area %),"[3]; 25° C./60% RH, 1 week",97.98 area %
same,Purity/Initial Purity (%),"[3]; 25° C./60% RH, 1 week",99.57%
same,Purity (area %),"[3]; 40° C./75% RH, 1 week",98.06 area %
same,Purity/Initial Purity (%),"[3]; 40° C./75% RH, 1 week",99.65%
same,Purity (area %),[3]; Initial,98.40 area %
COCCc1ccc(OCC(O)CNC(C)C)cc1 (centres unmarked) [Metoprolol],"Papp A→B at 2 h, 2 μM",in vitro,18.1 ×10⁻⁶ cm/s
CN(c1ncnc2[nH]ccc12)[C@@H]1CCc2cc(C#N)nn2C1 [Crystal form A of maleate],S: solubility,[1]; [4],980 µg/mL
same,S: solubility,[1]; [5],960 µg/mL
same,S: solubility,[1]; [6],980 µg/mL
same,S: solubility,[1]; [7],770 µg/mL
same,S: solubility,[1]; [8],60 µg/mL
same,S: solubility,[1]; [9],50 µg/mL
same,S: solubility,[1]; [10],50 µg/mL
same,S: solubility,[1]; [11],30 µg/mL
same,S: solubility,[1]; [15],1700 µg/mL
same,solubility at 1 h,"[1]; SGF, 37 °C, simulated gastric fluid, thermodynamic from solid, SGF, 1 hour, 37° C., feeding 10 mg/mL, read-out: S: solubility",6800 µg/mL
same,solubility at 2 h,"[1]; SGF, 37 °C, simulated gastric fluid, thermodynamic from solid, SGF, 2 hours, 37° C., feeding 10 mg/mL, read-out: S: solubility",6400 µg/mL
same,solubility at 4 h,"[1]; SGF, 37 °C, simulated gastric fluid, thermodynamic from solid, SGF, 4 hours, 37° C., feeding 10 mg/mL, read-out: S: solubility",6600 µg/mL
same,solubility at 24 h,"[1]; SGF, 37 °C, simulated gastric fluid, thermodynamic from solid, SGF, 24 hours, 37° C., feeding 10 mg/mL, read-out: S: solubility",3900 µg/mL
same,solubility at 1 h,"[1]; water, 37 °C, water, thermodynamic from solid, H2O, 1 hour, 37° C., feeding 10 mg/mL, read-out: S: solubility",2900 µg/mL
same,solubility at 2 h,"[1]; water, 37 °C, water, thermodynamic from solid, H2O, 2 hours, 37° C., feeding 10 mg/mL, read-out: S: solubility",2800 µg/mL
same,solubility at 4 h,"[1]; water, 37 °C, water, thermodynamic from solid, H2O, 4 hours, 37° C., feeding 10 mg/mL, read-out: S: solubility",2700 µg/mL
C[C@H]1O[C@@H](O[C@H]2[C@@H](O)C[C@H](O[C@H]3[C@@H](O)C[C@H](O[C@H]4CC[C@@]5(C)[C@H](CC[C@@H]6[C@@H]5C[C@@H](O)[C@]5(C)[C@@H](C7=CC(=O)OC7)CC[C@]65O)C4)O[C@@H]3C)O[C@@H]2C)C[C@H](O)[C@@H]1O [Digoxin],"Papp A→B at 2 h, 2 μM",in vitro,0.04 ×10⁻⁶ cm/s
same,"Papp B→A at 2 h, 2 μM",in vitro,13.9 ×10⁻⁶ cm/s
same,"efflux ratio at 2 h, 2 μM",in vitro,349
CN(c1ncnc2[nH]ccc12)[C@@H]1CCc2cc(C#N)nn2C1 [Crystal form C of hydrochloride],S: solubility,[1]; [4],670 µg/mL
same,S: solubility,[1]; [5],640 µg/mL
same,S: solubility,[1]; [6],590 µg/mL
same,S: solubility,[1]; [7],490 µg/mL
same,S: solubility,[1]; [8],20 µg/mL
same,S: solubility,[1]; [9],20 µg/mL
same,S: solubility,[1]; [10],20 µg/mL
same,S: solubility,[1]; [11],10 µg/mL
same,S: solubility,[1]; [12],2700 µg/mL
same,S: solubility,[1]; [13],2400 µg/mL
same,S: solubility,[1]; [14],2300 µg/mL
same,S: solubility,[1]; [15],2000 µg/mL
same,S: solubility,[1]; [16],5600 µg/mL
same,S: solubility,[1]; [17],5300 µg/mL
same,S: solubility,[1]; [18],5100 µg/mL
same,S: solubility,[1]; [19],4300 µg/mL

# Source: US20240002404A1, “SALT OF PYRROLOPYRIMIDINE COMPOUND, CRYSTALLINE FORM THEREOF, AND APPLICATION THEREOF” (GUANGZHOU JOYO PHARMATECH CO., LTD, priority 2020, published 2024)
